In patent publication US6087361A, “Aryl-imidazolines and aryl-imidazoles useful as α-2 adrenergic agonists without cardiovascular side effects” (Allergan Sales, Inc., priority 1997, dated 2000):
Read-outs that look alike come from different tables or passages of the source.

How the values were obtained:
[1] = biological target: T1, rat α2B (Rattus norvegicus, UniProt P19328); assay: Receptor binding, [3H]rauwolscine, CHO-RNG cells expressing rat α2B
T1 construct: expressed in transfected cells; host or cells: CHO cells (CHO-RNG)
T1 sequence (P19328 1-453): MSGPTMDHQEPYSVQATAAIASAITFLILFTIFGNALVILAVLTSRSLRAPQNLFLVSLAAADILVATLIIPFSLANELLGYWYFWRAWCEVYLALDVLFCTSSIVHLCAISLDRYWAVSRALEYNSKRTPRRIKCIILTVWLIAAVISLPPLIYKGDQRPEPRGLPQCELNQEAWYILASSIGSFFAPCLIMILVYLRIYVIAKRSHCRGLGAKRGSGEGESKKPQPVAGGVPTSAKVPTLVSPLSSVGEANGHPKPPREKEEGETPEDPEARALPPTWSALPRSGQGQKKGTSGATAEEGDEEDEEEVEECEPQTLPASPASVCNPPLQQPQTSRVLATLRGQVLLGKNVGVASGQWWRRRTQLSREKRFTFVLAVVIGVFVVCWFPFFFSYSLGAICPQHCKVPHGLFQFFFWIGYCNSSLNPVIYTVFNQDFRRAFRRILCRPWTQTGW
Description: (§1) Cell preparation: Chinese hamster ovary (CHO) cells expressing the human α2A and human α2C (CHO-C10 and CHO-C4 respectively) receptors and CHO cells (CHO-RNG) expressing the rat α2B, adrenoceptor were grown to near confluence in Dulbecco's modified Eagle's medium supplemented with 10% fetal bovine serum using standard cell culture methods. Cells were harvested by scraping and placed into cold buffer of the following composition: 50 mM Tris-HCl, 5 mM EDTA, pH 7.4). […] The pellet fraction was washed (resuspended in Tris-HCl, pH 8 buffer and centrifuged for 15-20 minutes at 49,000× g) 2 times and stored at -100° until binding assay.
(§2) Binding Studies: The radioligands [^3 H]rauwolscine (specific activity 80 Ci/mmol) and [^3 H]prazosin (specific activity 76 Ci/mmol) were obtained from New England Nuclear, Boston, Mass. Frozen membrane pellet was resuspended in 25 mM glycine/glycine, pH 7.5 and incubated with radioligand under the following conditions: CHO-C10, CHO-RNG, CHO-C4-[^3 H]rauwolscine, 22° C., 30 minutes; RKC-[^3 H]rauwolscine, 0° C., 120 minutes; and, HCC-[^3 H]prazosin, 22° C., 30 minutes in a final volume of 500 ul. At the end of the incubation period, the samples were filtered through glass filters (Whatman GF/B) in a 96 well cell harvester and rapidly washed four times with 4 mL of iced-cold 50 mM Tris-HCl buffer. The filters were then oven dried and transferred to scintillation vials containing 10 mL of Beckman's Ready Protein® scintillation cocktail for counting. […] Protein concentrations were determined with a protein assay kit from Bio Rad. Binding isotherms, equilibrium dissociation and affinity constants were analyzed and determined by the non-linear least squares curve fitting programs EBDA (BioSoft) or AccuFit Competition/Saturation by Beckman.
Cell Preparation: Chinese hamster ovary (CHO) cells expressing the human α2A (CHO-C10) and the rate α2B (CHO-RNG) […] were grown to near confluence in Dulbecco's modified Eagle's medium supplemented with 10% fetal bovine serum using standard cell culture methods. Cells were harvested by scraping and placed into cold buffer of the following composition: 50 mM Tris-HCl, 5 mM EDTA, pH 7.4). […] The pellet fraction was washed (resuspended in Tris-HCl, pH 8 buffer and centrifuged for 15-20 minutes at 49,000× g) 2 times and stored at […] until binding assay.
(§3) The radioligands [^3 H] rauwolscine (specific activity 80 Ci/mmol) and [^3 H] prazosin (specific activity 76 Ci/mmol) were obtained from New England Nuclear, Boston, Mass. Frozen membrane pellet was resuspended in 25 mM glycine/glycine, pH 7.4 and incubated with radioligand under the following conditions: CHO-C10, CHO-RNG, CHO-C4-[^3 H]rauwolscine, 22° C., 30 min.; and, HCC-[^3 H]prazowsin, 22° C., 30 minutes in a final volume of 500 ul. At the end of the incubation period, the samples were filtered through glass fiber filters (Whatman GF/B) in a 96 well cell harvester and rapidly washed four times which 4 mL of iced-cold 50 mM Tris-CHI buffer. The filters were then oven dried and transferred to scintillation vials containing 5 mL of Beckman's Ready Protein® scintillation cocktail for counting. […] Protein concentrations were determined with a protein assay kit from Bio lad. Binding isotherms, equilibrium dissociation and affinity constants were analyzed and determined by the non-linear least squares curve fitting programs AccuFit Competition/Saturation by Beckman.
(§4) Representative compounds of the present invention were tested according to the procedures given above. […] The receptor binding studies and K1 are measures of the affinity of a compound for a particular receptor.

[2] = biological target: T2, human α2C (Homo sapiens, UniProt P18825); assay: Receptor binding, [3H]rauwolscine, CHO-C4 cells expressing human α2C; conditions: CHO-C4, 22° C., 30 min
T2 construct: expressed in transfected cells; host or cells: CHO cells (CHO-C4)
T2 sequence (P18825 1-462): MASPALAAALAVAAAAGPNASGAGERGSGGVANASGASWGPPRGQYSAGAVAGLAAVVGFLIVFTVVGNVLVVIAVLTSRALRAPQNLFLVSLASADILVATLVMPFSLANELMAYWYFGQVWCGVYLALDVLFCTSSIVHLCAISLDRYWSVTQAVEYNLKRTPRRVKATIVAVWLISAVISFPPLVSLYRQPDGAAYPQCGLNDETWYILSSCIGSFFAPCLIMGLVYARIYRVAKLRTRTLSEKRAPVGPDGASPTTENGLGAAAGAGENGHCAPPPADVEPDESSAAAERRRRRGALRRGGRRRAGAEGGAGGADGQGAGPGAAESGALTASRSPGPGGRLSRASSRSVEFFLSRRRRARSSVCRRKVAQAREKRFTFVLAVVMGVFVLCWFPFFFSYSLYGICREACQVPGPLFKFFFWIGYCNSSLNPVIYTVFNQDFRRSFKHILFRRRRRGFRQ
Description: as §1, §2, §3, §4

[3] = biological target: I2A; assay: Receptor binding, I2A
[4] = rabbit
[5] = [3H]rauwolscine, CHO-RNG, 22° C., 30 min, read-out: Ki α2B

Question: With `Cc1c(NC2=NCCN2)ccc2c1NCCO2` [Example 16] as the compound, how does the Ki [1, 5] read?
Answer: 30 nM

Question: What about the Ki [2] of the same compound?
Answer: 8.9 nM

Question: And the Ki [3]?
Answer: 100000 nM

Question: And the “IOP of the untreated eye (systemic effect)” value ([4]; in vivo)?
Answer: without lowering IOP in the untreated eye

Question: What about the “lowering of intraocular pressure (IOP), treated eye” value ([4]; single drop of 0.001%, topical, one eye) of the same compound?
Answer: greater effect in lowering IOP than clonidine

Question: Which results are given for `Cc1c(NC2=NCCN2)ccc2c1OCCO2` [Example 13]?
Answer: Ki [1]: 4 nM; Ki [2]: 3.5 nM; Ki [3]: 100000 nM

Question: With `Cc1c(NC2=NCCN2)ccc2c1NCCN2` [Example 8] as the compound, how does the Ki [1, 5] read?
Answer: 139 nM

Question: And the Ki [2]?
Answer: 124 nM

Question: What about the Ki [3] of the same compound?
Answer: 100000 nM

Question: Which Ki [1] does the source give for `c1cc2c(cc1NC1=NCCN1)OCCO2` [Example 11] here?
Answer: 28 nM

Question: What about the Ki [3] of the same compound?
Answer: 1080 nM

Question: What does the source list for `c1cc2c(cc1NC1=NCCN1)NCCN2` [Example 7]?
Answer: Ki [1, 5]: 262 nM; Ki [2]: 463 nM; Ki [3]: 100000 nM

Question: With `COc1ccc(NC2=NCCN2)c(C)c1OC` [Example 12] as the compound, how does the Ki [1, 5] read?
Answer: 196 nM

Question: What about the Ki [2] of the same compound?
Answer: 93 nM

Question: What about the Ki [3] of the same compound?
Answer: 100000 nM

Question: For `Cc1c(O)cccc1Nc1ncc[nH]1` [Example 20], which Ki [1, 5] is on record?
Answer: 895 nM

Question: And the Ki [2]?
Answer: 457 nM

Question: Which Ki [1, 5] does the source give for `Cc1c(NC2=NCCN2)ccc2c1NC(=O)CO2` [Example 15] here?
Answer: 241 nM

Question: And the Ki [2]?
Answer: 134 nM

Question: With `CC1CNc2c(ccc(NC3=NCCN3)c2Br)N1` (stereo not shown) [Example 10] as the compound, how does the Ki [1, 5] read?
Answer: 194 nM

Question: What about the Ki [2] of the same compound?
Answer: 293 nM

Question: And the Ki [3]?
Answer: 24800 nM

Question: Which Ki [1, 5] does the source give for `Cc1cccc(Nc2ncc[nH]2)c1C` [Example 18] here?
Answer: 295 nM

Question: And the Ki [2]?
Answer: 180 nM

Question: And the Ki [3]?
Answer: 141 nM

Question: What does the source list for `Brc1c(NC2=NCCN2)ccc2c1NCCN2` [Example 9]?
Answer: Ki [1, 5]: 47 nM; Ki [2]: 120 nM; Ki [3]: 7560 nM

Question: With `O=C1COc2ccc(NC3=NCCN3)cc2N1` [Example 14] as the compound, how does the Ki [1, 5] read?
Answer: 842 nM

Question: What about the Ki [3] of the same compound?
Answer: 4500 nM

Question: What does the source list for `COc1c(C(C)(C)C)cc(C)c(Nc2ncc[nH]2)c1C` [Example 22]?
Answer: Ki [1, 5]: 221 nM; Ki [2]: 88 nM; Ki [3]: 100000 nM

Question: Which results are given for `Nc1cc(Cl)c(NC2=NCCN2)c(Cl)c1` [Example 3]?
Answer: Ki [1, 5]: 4.8 nM; Ki [2]: 21 nM; Ki [3]: 64800 nM

Question: With `Cc1ccccc1NC1=NCCN1` [Example 1] as the compound, how does the Ki [1] read?
Answer: 49 nM

Question: What about the Ki [2] of the same compound?
Answer: 70 nM

Question: What about the Ki [3] of the same compound?
Answer: 1200 nM
